Results: patent US20220339144A1, “PYRIDINYL INDOLE COMPOUNDS AND METHODS OF USE THEREOF” (Chinook Therapeutics Canada, Inc., priority 2021, published 2022)

Experiments:
AMPKα1β1γ1 = biological target: T1, AMPKα1β1γ1 (Homo sapiens, UniProt Q13131+Q9Y478); assay: AMPKα1β1γ1 biochemical assay (LabChip EZ Reader mobility shift); conditions: EC50 of Table 1; activation, normalized to DMSO vehicle control; read-out: Human AMPK AMPKα1β1γ1 EC50
T1 construct: purchased Carna Biosciences 02-113
Procedure: (§1) Compounds disclosed herein were evaluated for their ability to activate AMPKα1β1γ1 by measuring phosphorylation of a commercially available fluorescent AMPK substrate using the LabChip® EZ Reader microfluidic system that is based on a mobility shift principle in which unphosphorylated fluorescent substrates may be separated and distinguished from phosphorylated fluorescent substrates due to the difference in negative charge. Briefly, compounds were serial diluted 3-fold in 100% DMSO for an 11-point dose-response curve. A 20 nL aliquot of diluted compound was transferred into a 384-well plate using a liquid handler (Labcyte Inc., Echo 550). A pre-prepared solution (10 mM MgCl2, 0.01% Brij-35, 2 mM DTT, 0.05% BSA, 1 mM EGTA, and 50 mM HEPES pH 7.5) was combined with 0.83 nM AMPKα1β1γ1 (Carna Biosciences, 02-113). The enzyme solution (15 μL) was aliquoted into each well and the plate was incubated at 24° C. for 30 min. A second stock solution (10 mM MgCl2, 0.01% Brij-35, 2 mM DTT, 0.05% BSA, 1 mM EGTA, 800 μM ATP, and 50 mM HEPES pH 7.5) was combined with 6 μM fluorescent peptide substrate for AMPKal (Perkin Elmer, 760351). The kinase reaction was initiated by adding 5 μL of the second solution containing substrate and ATP to each well. The plate was incubated at 24° C. for 90 minutes and 75 μL of 0.5 M EDTA was added to terminate the reaction. The plates were analyzed using a LabChip® EZ Reader (Perkin Elmer, 122919) and the effective concentration to achieve 50% of the maximal activity (EC50) was calculated after normalizing to the DMSO vehicle control.

AMPKα1β2γ1 = biological target: T2, AMPKα1β2γ1 (Homo sapiens, UniProt O43741+Q13131); assay: AMPKα1β2γ1 biochemical assay (LabChip EZ Reader mobility shift); conditions: second EC50 column of Table 1 (head repeats α1β1γ1; text says α1β2γ1 isoform); read-out: Human AMPK AMPKα1β1γ1 EC50
T2 construct: purchased Carna Biosciences (printed only as 'Biosciences') 02-147
Procedure: as §1
The same procedure above was also used to measure activation of the AMPKα1β2γ1 isoform, replacing AMPKα1β1γ1 with AMPKα1β2γ1 Biosciences 02-147).

T1 sequence (Q13131 whole entry): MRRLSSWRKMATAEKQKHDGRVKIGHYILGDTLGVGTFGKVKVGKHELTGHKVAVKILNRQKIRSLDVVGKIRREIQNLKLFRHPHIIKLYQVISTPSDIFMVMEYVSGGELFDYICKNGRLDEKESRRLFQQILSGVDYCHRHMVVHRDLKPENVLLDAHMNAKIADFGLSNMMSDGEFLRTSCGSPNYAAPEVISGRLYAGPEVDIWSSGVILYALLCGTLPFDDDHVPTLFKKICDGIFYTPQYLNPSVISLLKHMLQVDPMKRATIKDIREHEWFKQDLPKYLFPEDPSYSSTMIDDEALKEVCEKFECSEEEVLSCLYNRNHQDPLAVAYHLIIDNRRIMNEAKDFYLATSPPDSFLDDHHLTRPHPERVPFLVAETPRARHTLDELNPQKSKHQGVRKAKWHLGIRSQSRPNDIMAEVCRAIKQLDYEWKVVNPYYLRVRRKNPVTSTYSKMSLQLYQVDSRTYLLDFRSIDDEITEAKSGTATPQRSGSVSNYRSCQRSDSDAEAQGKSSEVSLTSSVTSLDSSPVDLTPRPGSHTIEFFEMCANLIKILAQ
T1 sequence (Q9Y478 whole entry): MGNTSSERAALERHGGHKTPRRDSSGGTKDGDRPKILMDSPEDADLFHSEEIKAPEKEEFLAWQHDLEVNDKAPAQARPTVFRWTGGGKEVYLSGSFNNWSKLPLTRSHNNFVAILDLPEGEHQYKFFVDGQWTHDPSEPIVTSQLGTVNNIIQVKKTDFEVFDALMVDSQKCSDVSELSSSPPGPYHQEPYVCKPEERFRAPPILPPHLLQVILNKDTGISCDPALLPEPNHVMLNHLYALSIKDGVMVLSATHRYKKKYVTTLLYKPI
T1 sequence (P54619 whole entry partner): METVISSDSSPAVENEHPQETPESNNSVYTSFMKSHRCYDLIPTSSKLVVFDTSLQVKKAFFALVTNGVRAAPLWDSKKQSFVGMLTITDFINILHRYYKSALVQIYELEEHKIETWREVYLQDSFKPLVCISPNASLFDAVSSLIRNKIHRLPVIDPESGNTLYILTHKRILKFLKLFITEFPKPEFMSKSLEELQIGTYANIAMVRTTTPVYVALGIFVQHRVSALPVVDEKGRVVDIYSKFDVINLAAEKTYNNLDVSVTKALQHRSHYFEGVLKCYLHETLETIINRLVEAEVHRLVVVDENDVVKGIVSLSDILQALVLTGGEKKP
T2 sequence (Q13131 whole entry, canonical isoform): as the sequence (Q13131 whole entry) above
T2 sequence (O43741 whole entry, canonical isoform): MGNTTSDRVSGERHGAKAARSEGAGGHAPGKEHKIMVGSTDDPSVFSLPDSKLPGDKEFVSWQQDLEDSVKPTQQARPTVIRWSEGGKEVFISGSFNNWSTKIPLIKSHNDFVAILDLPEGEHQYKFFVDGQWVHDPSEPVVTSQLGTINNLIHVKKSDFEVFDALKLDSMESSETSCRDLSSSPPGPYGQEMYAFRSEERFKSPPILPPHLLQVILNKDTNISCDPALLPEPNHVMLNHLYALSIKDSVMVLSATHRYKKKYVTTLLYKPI
T2 sequence (P54619 whole entry partner, canonical isoform): as the sequence (P54619 whole entry partner) above

EC50 (AMPKα1β1γ1) [nM]	EC50 (AMPKα1β2γ1) [nM]	SMILES
≤ 50	> 10000	COc1nc(N2CC3(CCCO3)C2)ccc1-c1cc2c(C(=O)O)c[nH]c2cc1Cl [Example 8, 6-chloro-5-(2-methoxy-6-(5-oxa-2-azaspiro[3.4]octan-2-yl)pyridin-3-yl)-1H-indole-3-carboxylic acid]
≤ 50	> 10000	COc1nc(N2CC3(CC(O)C3)C2)ccc1-c1cc2c(C(=O)O)c[nH]c2cc1Cl [Example 4, 6-chloro-5-(6-(6-hydroxy-2-azaspiro[3.3]heptan-2-yl)-2-methoxypyridin-3-yl)-1H-indole-3-carboxylic acid]
50 to 100		COc1nc(N2CC3COC(C3)C2)ccc1-c1cc2c(C(=O)O)c[nH]c2cc1Cl (racemic) [Example 20, racemic-5-(6-(6-oxa-3-azabicyclo[3.2.1]octan-3-yl)-2-methoxypyridin-3-yl)-6-chloro-1H-indole-3-carboxylic acid]
50 to 100	> 10000	COc1nc(N2C[C@@H]3[C@H](C2)[C@H]3OC)ccc1-c1cc2c(C(=O)O)c[nH]c2cc1Cl [Example 23, 6-chloro-5-(2-methoxy-6-((trans)-6-methoxy-3-azabicyclo[3.1.0]hexan-3-yl)pyridin-3-yl)-1H-indole-3-carboxylic acid]
100 to 250		COc1nc(N2CC3CC2CO3)ccc1-c1cc2c(C(=O)O)c[nH]c2cc1Cl (racemic) [Example 2, rac-5-(6-(2-oxa-5-azabicyclo[2.2.1]heptan-5-yl)-2-methoxypyridin-3-yl)-6-chloro-1H-indole-3-carboxylic acid]
≤ 50		COc1nc(N2CC3(CCS3(=O)=O)C2)ccc1-c1cc2c(C(=O)O)c[nH]c2cc1Cl [Example 16, 6-chloro-5-(6-(1,1-dioxido-1-thia-6-azaspiro[3.3]heptan-6-yl)-2-methoxypyridin-3-yl)-1H-indole-3-carboxylic acid]
100 to 250		COc1nc(N2CCC3(CCOCC3)C2)ccc1-c1cc2c(C(=O)O)c[nH]c2cc1Cl [Example 35, 6-chloro-5-(2-methoxy-6-[8-oxa-2-azaspiro[4.5]decan-2-yl]pyridin-3-yl)-1H-indole-3-carboxylic acid]
50 to 100	> 10000	COc1nc(N2C[C@H]3COC[C@H]3C2)ccc1-c1cc2c(C(=O)O)c[nH]c2cc1Cl [Example 27, 6-chloro-5-(2-methoxy-6-((cis)-tetrahydro-1H-furo[3,4-c]pyrrol-5(3H)-yl)pyridin-3-yl)-1H-indole-3-carboxylic Acid]
100 to 250		COc1nc(N2CC3CCC2CO3)ccc1-c1cc2c(C(=O)O)c[nH]c2cc1Cl (racemic) [Example 30, racemic-5-(6-(2-oxa-5-azabicyclo[2.2.2]octan-5-yl)-2-methoxypyridin-3-yl)-6-chloro-1H-indole-3-carboxylic acid]
≤ 50	> 10000	COc1nc(N2CC3(CC3)C2)ccc1-c1cc2c(C(=O)O)c[nH]c2cc1Cl [Example 12, 5-[6-(5-azaspiro[2.3]hexan-5-yl)-2-methoxy-3-pyridyl]-6-chloro-1H-indole-3-carboxylic acid]
50 to 100		COc1nc(N2CCC3(CCO3)CC2)ccc1-c1cc2c(C(=O)O)c[nH]c2cc1Cl (racemic) [Example 31, racemic-6-chloro-5-(2-methoxy-6-(1-oxa-7-azaspiro [3.5]nonan-7-yl)pyridin-3-yl)-1H-indole-3-carboxylic acid]
50 to 100	> 10000	COc1nc(N2CC3(CCC(=O)N3)C2)ccc1-c1cc2c(C(=O)O)c[nH]c2cc1Cl [Example 17, 6-chloro-5-(2-methoxy-6-(6-oxo-2,5-diazaspiro[3.4]octan-2-yl)pyridin-3-yl)-1H-indole-3-carboxylic acid]
50 to 100		COc1nc(N2C[C@H]3C[C@H]3C2)ccc1-c1cc2c(C(=O)O)c[nH]c2cc1Cl [Example 14, 5-(6-(3-azabicyclo[3.1.0]hexan-3-yl)-2-methoxypyridin-3-yl)-6-chloro-1H-indole-3-carboxylic acid]
50 to 100	> 10000	COc1nc(N2CC3CC3(C#N)C2)ccc1-c1cc2c(C(=O)O)c[nH]c2cc1Cl (racemic) [Example 15, racemic-6-chloro-5-(6-(1-cyano-3-azabicyclo[3.1.0]hexan-3-yl)-2-methoxypyridin-3-yl)-1H-indole-3-carboxylic acid]
≤ 50	250 to 10000	COc1nc(N2C[C@H]3COC[C@@H]3C2)ccc1-c1cc2c(C(=O)O)c[nH]c2cc1Cl [Example 34, 6-chloro-5-(2-methoxy-6-((3aS,6aS)-tetrahydro-1H-furo[3,4-c]pyrrol-5(3H)-yl)pyridin-3-yl)-1H-indole-3-carboxylic acid]
≤ 50	> 10000	COc1nc(N2CCC3(COC3)C2)ccc1-c1cc2c(C(=O)O)c[nH]c2cc1Cl [Example 5, 6-chloro-5-(2-methoxy-6-(2-oxa-6-azaspiro[3.4]octan-6-yl)pyridin-3-yl)-1H-indole-3-carboxylic acid]
≤ 50	> 10000	COc1nc(N2CC3(CCC3)C2)ccc1-c1cc2c(C(=O)O)c[nH]c2cc1Cl [Example 13, 6-chloro-5-(2-methoxy-6-(2-azaspiro[3.3]heptan-2-yl)pyridin-3-yl)-1H-indole-3-carboxylic acid]
≤ 50	250 to 10000	COc1nc(N2C[C@H]3CN(C(C)=O)C[C@H]3C2)ccc1-c1cc2c(C(=O)O)c[nH]c2cc1Cl [Example 38, 5-(6-((3aR,6aS)-5-acetylhexahydropyrrolo [3,4-c]pyrrol-2(1H)-yl)-2-methoxypyridin-3-yl)-6-chloro-1H-indole-3-carboxylic acid]
100 to 250		COc1nc(N2CC3CCC(C2)O3)ccc1-c1cc2c(C(=O)O)c[nH]c2cc1Cl (racemic) [Example 29, racemic-5-(6-(8-oxa-3-azabicyclo[3.2.1]octan-3-yl)-2-methoxypyridin-3-yl)-6-chloro-1H-indole-3-carboxylic acid]
≤ 50	> 10000	COc1nc(N2CC3CC3(O)C2)ccc1-c1cc2c(C(=O)O)c[nH]c2cc1Cl (racemic) [Example 26, racemic-6-chloro-5-(6-(1-hydroxy-3-azabicyclo[3.1.0]hexan-3-yl)-2-methoxypyridin-3-yl)-1H-indole-3-carboxylic acid]
100 to 250		COc1nc(N2CC3(CCOCC3)C2)ccc1-c1cc2c(C(=O)O)c[nH]c2cc1Cl [Example 36, 6-chloro-5-(2-methoxy-6-(7-oxa-2-azaspiro[3.5]nonan-2-yl)pyridin-3-yl)-1H-indole-3-carboxylic acid]
≤ 50		COc1nc(N2CC3CC(C2)O3)ccc1-c1cc2c(C(=O)O)c[nH]c2cc1Cl [Example 39, 5-(6-(6-oxa-3-azabicyclo[3.1.1]heptan-3-yl)-2-methoxypyridin-3-yl)-6-chloro-1H-indole-3-carboxylic acid]
50 to 100		COc1nc(N2CC3(CNC3)C2)ccc1-c1cc2c(C(=O)O)c[nH]c2cc1Cl [Example 11, 6-chloro-5-(2-methoxy-6-(2,6-diazaspiro[3.3]heptan-2-yl)pyridin-3-yl)-1H-indole-3-carboxylic acid]
100 to 250		COc1nc(N2CC3(COC3)C2)ccc1-c1cc2c(C(=O)O)c[nH]c2cc1F [Example 40, 6-fluoro-5-(2-methoxy-6-[2-oxa-6-azaspiro[3.3]hentan-6-yl]pyridin-3-yl)-1H-indole-3-carboxylic Acid]
≤ 50		COc1nc(N2C[C@@H]3COC[C@H]3C2)ccc1-c1cc2c(C(=O)O)c[nH]c2cc1Cl (racemic) [Example 32, racemic-6-chloro-5-(2-methoxy-6-((trans)tetrahydro-1H-furo[3,4-c]pyrrol-5(3H)-yl)pyridin-3-yl)-1H-indole-3-carboxylic acid]
100 to 250		COc1nc(N2CCC3(CCOC3)C2)ccc1-c1cc2c(C(=O)O)c[nH]c2cc1Cl (racemic) [Example 37, racemic-6-chloro-5-(2-methoxy-6-(2-oxa-7-azaspiro [4.4]nonan-7-yl)pyridin-3-yl)-1H-indole-3-carboxylic acid]

SMILES	EC50 (AMPKα1β1γ1) [nM]	EC50 (AMPKα1β2γ1) [nM]
COc1nc(N2CC3(CC(NC(=O)OC(C)(C)C)C3)C2)ccc1-c1cc2c(C(=O)O)c[nH]c2cc1Cl [Example 7, 5-(6-(6-((tert-butoxycarbonyl)amino)-2-azaspiro[3.3]heptan-2-yl)-2-methoxypyridin-3-yl)-6-chloro-1H-indole-3-carboxylic acid]	≤ 50	
